Consider 3 molecules from patent US7947279B2, “Peptide having hydrolase activity” (The Trustees of Columbia University in the City of New York, priority 2005, dated 2011).

Assay [1] relates to CA1-LTP in hippocampal slices. The experiment in a line: CA1-LTP in hippocampal slices (theta-burst). Format: cell-based, mouse. The note with it: for rescue of LTP at different concentrations, S18Y versus TAT-HA-Uch-L1 (words): 1 hr pre-treatment, then Aβ 200 nM 20 min, as low as 5 nM; for Aβ-induced impairment of CA1-LTP (words): fusion protein 20 nM 1 hr, then plus Aβ 200 nM 20 min.

Assay [2] concerns PKA. As to the kind of experiment: PKA kinase activity in hippocampal slices. The assay is classed as cell-based, mouse.
Assay [3] concerns SY5Y neuroblastoma cells transfected with a degron CL1-GFP expression vector. The experiment in a line: Proteasome reporter assay (GFP^u). Format: cell-based, human. The note with it: substance alone. The procedure: Proteasome reporter assays. In this cell line, human neuroblastoma SH-SY5Y cells were permanently transfected with reporter construct consisting of green fluorescent protein (GFP) conjugated at its C-terminus to a short degron sequence (CL-1) (Gilon et al., 1998). […] The SY5Y-GFP^u cells were grown in 1×DMEM (Invitrogen) supplemented with 15% fetal bovine serum (JRH), 1× penicillin/streptomycin (Gibco). After indicated treatments, GFP^u concentrations were assayed by densitometric analysis of immunoblots of total protein extracts (10 ug/lane) using monoclonal GFP antibodies (Santa Cruz Biotechnology) and visualized with HRP-conjugated secondary antibodies and ECL (Pierce). Loading equalization was normalized by probing blots with anti-ERK antibodies (Santa Cruz Biotechnology).
In general terms: A reporter such as luciferase makes a cellular process visible.

The test system of assay [4] is PKA. As to the kind of experiment: PKA kinase activity in hippocampal cultures. Format: cell-based, rat. Particulars: 3 μM Aβ for 24 hrs alone. The procedure: PKA Kinase Activity Measurement. Primary hippocampal neurons from E18 rats were dissociated and cultured as described (Vitolo et al, Proc Natl Acad Sci USA 99:13217-13221 (2002)). […]
Hippocampal slices were lysed with RIPA lysis buffer and homogenized by Dounce homogenizer on ice. 5 DIV primary cultures were treated for 24 hrs and cells were lysed with RIPA lysis buffer.
Levels of intracellular PKA kinase activity were measured by PKA Kinase Activity Assay Kit (Stressxpress) according to manufacturer's instructions.
(§1) Preparation of Cell Cultures. Hippocampal cell cultures were prepared as previously described (Vitolo et al., 2002). In cell culture experiments fetuses at embryonic day 18 from timed pregnant Sprague-Dawley rats (Taconic Farms) were used. Fetuses were sacrificed and the hippocampi removed. Neurons were then dissociated, plated on 6 well-plates coated with poly-L-lysine and maintained in a defined serum-free medium containing minimum essential medium supplemented with N-2, glucose, albumin, pyruvic acid, antibiotics and antimycotics. […] 5 DIV cells were used for the experiments.

For another assay, the system named is monoubiquitin. As to the kind of experiment: Monoubiquitin levels (quantitative Western blot). The assay is classed as cell-based, mouse. The procedure:
(§2) Western Blotting: Protein levels were assessed using standard procedures. Protein extraction was performed using buffer with and without detergent. For the extraction of protein using detergent, hippocampal tissues and cultured hippocampal neurons (5 DIV) were homogenized in RIPA buffer (50 mM Tris-HCl pH 7.4, 1% Triton X-100, 1% sodium deoxycholate, 0.1% SDS, 150 mM sodium chloride, 10 mM sodium fluoride, 30 mM sodium pyrophosphate, 50 mM sodium orthovanadate) containing 1× complete protease inhibitor (Roche) and 1 mM phenylmethylsulfonyl fluoride (PMSF). For extraction of proteins without detergent, hippocampal extracts were homogenized with disposable dounce homogenizers in buffer A, containing 10 mM HEPES pH 7.3, 300 mM sucrose, protease 1× complete protease inhibitor (Roche) and PMSF. After centrifugation at 10,000×g supernatant proteins were resolved on a 8% or 4-20% gradient Tris-Glycine gel, transferred onto PVDF or nitrocellulose membrane and blocked in 5% skim milk in PBS-Tween 0.1% (PBS-T). Membranes were probed with primary antibodies, and after washing with PBS-T incubated with an appropriate HRP-conjugated secondary antibody. The following antibodies were used: mouse monoclonal anti-ubiquitin (Chemicon), rabbit polyclonal anti-pCREB (Upstate Biotech.), rabbit polyclonal anti-PKA-RIIα (Santa Cruz Biotech. Inc), mouse monoclonal anti-Uch-L1 (Novocastra), monoclonal mouse anti-HA (Santa Cruz Biotech. Inc), and anti-PKA IIα. Detection was performed using HRP-conjugated secondary antibodies (Pierce, Rockford, Ill.). To control loading and transfer, protein immunoreactivities were normalized against total extracellular signal-regulated protein kinases (ERK1/2) levels with a rabbit analyzed using a rabbit polyclonal anti-ERK1/2 antibody (Cell Signaling Technology, Inc). NIH IMAGE was used to analyze the scanned blots and quantify the intensity of the protein signals.
A general note: In western blotting, separated proteins are transferred to a membrane and probed.

A further assay concerns phospho-CREB at Ser-133. The experiment in a line: Phospho-CREB (Ser-133) Western blot in hippocampal cultures. Particulars: for glutamate-induced CREB phosphorylation (words): 3 μM Aβ 24 hrs alone; for effect of Aβ on glutamate-induced CREB phosphorylation (words): fusion protein 100 nM, 3 μM Aβ 24 hrs, 50 μM glutamate 15 min. Format: cell-based, rat. The procedure: as §2, §1

Another assay deals with cAMP. The experiment in a line: Intracellular cAMP enzyme immunoassay. Particulars: Aβ 3 μM 24 hrs alone. The assay is classed as cell-based, rat. The procedure:
Intracellular cAMP Enzyme Immunoassay. Hippocampal neurons from E18 rats were dissociated and plated on poly-L-lysine coated 6-well plates in minimum essential medium supplemented with N-2, glucose, albumin, pyruvic acid, antibiotics and antimycotics. […] After 24 hours, cell lysates were obtained and intracellular cAMP levels were measured using cAMP Biotrak Enzymeimmunoassay (EIA) System (Amersham) in accordance with manufacturer's instructions.

The subject of a further assay is Uch-L1. As to the kind of experiment: Hydrolase (ubiquitin-AMC) assay on hippocampal slices. Particulars: 200 nM Aβ alone. Format: cell-based, mouse. As to the method:
Slice preparation. Mice were decapitated and their hippocampi removed. […] Slices were permitted to recover from cutting for at least 90 min. before recordings. For experiments with lactacystin, slices were perfused with the drug or vehicle for 2 to 4 hrs in a small volume (10 ml) chamber.
Briefly, hippocampal tissue was treated with tissue protein extraction reagent (T-PER; Pierce) containing freshly added EDTA-free protease inhibitors. Homogenate was centrifuged at 10,000 rpm for 5 min. Protein concentration was measured in the supernatant using the BCA protein assay reagent. In some experiments hydrolysis was initiated by adding 10 μl of 20 nM Uch-L1 or Uch-L3 (Boston Biochem). The hydrolase assay was performed using fluorogenic ubiquitin-7-amino-4-methylcoumarin (ubiquitin-AMC) (Boston Biochem) as a substrate. The substrate was diluted in assay buffer (50 mM Tris-HCL, 0.5 mM EDTA, 5 mM dithiothreitol and 0.1 mg/ml ovalbumin, pH 7.6). Each reaction mixture containing 400 nM substrate and 100 μg enzyme sample was incubated for 5 min at room temperature. The reaction was monitored using a fluorescence spectrophotometer (CytoFluor Series 4000, ABI Inc) at 25° C. The free AMC fluorophore was excited at 380 nm and measured at 460 nm. […] In some experiments, hydrolysis was also measured on the soluble and insoluble fractions (FIG. 28D). In a group of experiments hydrolysis was measured by mixing ubiquitin-AMC with 20 nM TAT fusion proteins (FIG. 27C). In other experiments the substrate was Nedd8-AMC (Boston Biochem).

The subject of assay [5] is BST at the Schaffer collateral/CA1 connection of hippocampal slices. The experiment in a line: Basal synaptic transmission (BST) in hippocampal slices. Format: cell-based, mouse. Particulars: fusion protein 20 nM 1 hr or Aβ 200 nM 20 min, alone.
In the next assay the test system is PKA RIIα. The experiment in a line: PKA RIIα levels in hippocampal slices (Western blot). Format: cell-based, mouse. The note with it: for PKA RIIα levels (words): Aβ 200 nM 20 min alone. As to the method: as §2
For the next assay, the system named is phospho-CREB. The experiment in a line: Phospho-CREB immunofluorescence in hippocampal slices. The assay is classed as cell-based, mouse. Particulars: for tetanus-induced increase in phospho-CREB (words): Aβ alone.

Entries after “also recorded” stand apart in the source; their conditions may differ.

Turning to `CCCCCCOC(=O)[C@]1(O)C[C@@H]2O[C@@]1(C)n1c3ccccc3c3c4c(c5c6ccccc6n2c5c31)C(=O)NC4` [KT5720, reference compound], in [1] (KT5720 1 μM, Uch-L1 fusion protein 20 nM, Aβ 200 nM), the “reversal of LTP reduction by Uch-L1 fusion protein” value is reported as “blocked”.
Turning to “Aβ: oligomeric Aβ42 prepared from lyophilized synthetic peptide (American Peptide) [reference compound]”, the “PKA activity in slices” value in the assay on PKA [2] (200 nM Aβ for 20 min alone) was “reduced”. For the same molecule, in the assay on PKA [2] (200 nM Aβ for 20 minutes), the PKA activity is on record as 71.75±2.21 % of control. Besides, the “GFP^u levels” value in [3] is given as “increase in GFP levels”. Also, the “PKA activity in cultures” value in the assay with PKA [4] is “reduced”. Also, the “decrease of monoubiquitin levels” value in the assay with monoubiquitin (oligomeric Aβ42 200 nM for 20 min) was approximately 70%. The “monoubiquitin levels” value in the assay with monoubiquitin (substance alone) was “reduced”. Moreover, the entries for the “glutamate-induced CREB phosphorylation (words)” value in the assay on phospho-CREB at Ser-133 and with phospho-CREB at Ser-133 (listed as Aβ42) were “annulled the increase in phospho-CREB” and “strong decrease in CREB phosphorylation”, respectively. The “LTP” value in assay [1] (Aβ 200 nM alone) is “markedly reduced; also recorded: LTP was reduced”. Further, the “LTP at 120 min after tetanus” value in assay [1] (oligomeric Aβ 200 nM, 20 min perfusion) is recorded as 136.34±13.40 % of baseline slope. For the same molecule, the “cAMP levels” value in the assay with cAMP is “reduced cAMP levels”. In addition, the “ubiquitin-c-terminal hydrolase enzymatic activity” value in the assay with Uch-L1 is reported as 72.36±6.81 % of TAT-HA treated WT slices. Moreover, the “BST in WT slices (words)” value in assay [5] was “did not reveal any significant difference among treatments; also recorded: does not affect CA1-BST”. For the same molecule, the “PKA RIIα levels (words)” value in the assay with PKA RIIα is on record as “increase in PKA RIIα levels”; in the assay with PKA RIIα (listed as Aβ42) it was “marked increase in RIIα”; with PKA RIIα (listed as amyloid-beta), “increased”. The RIIα levels in the assay with PKA RIIα (Aβ42 200 nM for 20 minutes) is listed as 163.68±10.51 % of TAT-HA control slices. The “tetanus-induced increase in phospho-CREB (words)” value in the assay on phospho-CREB is “blocks the increase in phosphorylated CREB; also recorded: blocked the increase in phospho-CREB; also recorded: blockade of the increase in CA1-phospho-CREB”; in the assay with phospho-CREB (listed as Aβ42), “blocked the increase in CA1 immunofluorescence”. Moreover, the “phospho-CREB immunofluorescence without theta-burst” value in the assay on phospho-CREB (no tetanus) is recorded as “did not increase immunofluorescence; also recorded: did not modify immunofluorescence; also recorded: neither Aβ42 alone nor TAT-HA-Uch-L1 alone nor TAT-HA-Uch-L1 paired with Aβ42 induced changes”.

B1: TAT-HA-Uch-L1(S18Y): mutant TAT-HA-Uch-L1 construct, S18Y (ligase site), made by site-directed mutagenesis (protein, UniProt P09936 1-220, looked up, variant S18Y)
Ubiquitin carboxyl-terminal …: MQLKPMEINPEMLNKVLYRLGVAGQWRFVDVLGLEEESLGSVPAPACALLLLFPLTAQHENFRKKQIEELKGQEVSPKVYFMKQTIGNSCGTIGLIHAVANNQDKLGFEDGSVLKQFLSETEKMSPEDRAKCFEKNEAIQAAHDAVAQEGQCRVDDKVNFHFILFNNVDGHLYELDGRMPFPVNHGASSEDTLLKDAAKVCREFTEREQGEVRFSAVALC
modifications: fused to HIV TAT transduction peptide and HA tag
notes: mutant TAT-HA-Uch-L1 construct, S18Y (ligase site), made by site-directed mutagenesis
Turning to B1, the “effect of Aβ on glutamate-induced CREB phosphorylation (words)” value is on record as “totally blocked the effect of Aβ on CREB phosphorylation; also recorded: completely opposed” with phospho-CREB at Ser-133 and “completely opposed” with phospho-CREB at Ser-133 (listed as TAT-HA-Uch-L1 (S18Y)). The “rescue of LTP at different concentrations, S18Y versus TAT-HA-Uch-L1 (words)” value in assay [1] is “no difference between the two forms”; in assay [1] (listed as TAT-HA-Uch-L1 (S18Y)) it was “No difference was detected”. For the same molecule, the “Aβ-induced impairment of CA1-LTP (words)” value in assay [1] was “protected; also recorded: completely reversed”; in [1] (listed as TAT-HA-Uch-L1 (S18Y)), “significantly enhanced the amplitude of LTP”. The “LTP in slices not treated with Aβ (words)” value in assay [1] (fusion protein 20 nM, 1 hr, WT slices, 3 theta-burst trains) was “did not affect the amounts of potentiation”. For the same molecule, the “baseline transmission in slices without tetanic stimulation” value in [1] (non-tetanized slices) is on record as “Neither TAT-HA-Uch-L1(C90S) nor TAT-HA-Uch-L1(S18Y) affected baseline; also recorded: nor affected basal transmission”.
